Series [1] has as its system HCT-116 human colorectal cancer cell line. Kind of series: IC50 in HCT-116 human colorectal cancer cell line. The format is cell-based. The note with it: for IC50: Homo sapiens. As to the method: Each of the cryptophycin analogs was assessed using a zone assay as a relative comparison of potency over a variety of cell lines (see Table 1), and the IC50 for each analog was determined in the HCT-116 human colorectal cancer cell line.

In series [2] the test system is platinum-resistant ovarian cancer. The note with it: cited from earlier work.

By IC50 is commonly meant the concentration needed to halve the response being measured. In the case of `COc1ccc(C[C@H]2NC(=O)/C=C/C[C@@H]([C@H](C)/C=C/c3ccccn3)OC(=O)[C@H](CC(C)C)OC(=O)[C@H](C)CNC2=O)cc1Cl` [2 pyridyl, (3S,6R,10R,16S,E)-10-(3-chloro-4-methoxybenzyl)-3-isobutyl-6-methyl-16-((R,E)-4-(pyridin-2-yl)but-3-en-2-yl)-1,4-dioxa-8,11-diazacyclohexadec-13-ene-2,5,9,12-tetraone], the IC50 in series [1] was determined as 102 nM.

On to `COc1ccc(C[C@H]2NC(=O)/C=C/C[C@@H]([C@H](C)/C=C/c3cccnc3)OC(=O)[C@H](CC(C)C)OC(=O)[C@H](C)CNC2=O)cc1Cl` [3 pyridyl, (3S,6R,10R,16S,E)-10-(3-chloro-4-methoxybenzyl)-3-isobutyl-6-methyl-16-((R,E)-4-(pyridin-3-yl)but-3-en-2-yl)-1,4-dioxa-8,11-diazacyclohexadec-13-ene-2,5,9,12-tetraone], for which, in series [1], half-maximal inhibition (IC50) was put at 0.86 nM.

Regarding `COc1ccc(C[C@H]2NC(=O)/C=C/C[C@@H]([C@H](C)/C=C/c3cnn(C)c3)OC(=O)[C@H](CC(C)C)OC(=O)[C@H](C)CNC2=O)cc1Cl` [4 methyl pyrazole, (3S,6R,10R,16S,E)-10-(3-chloro-4-methoxybenzyl)-3-isobutyl-6-methyl-16-((R,E)-4-(1-methyl-1H-pyrazol-4-yl)but-3-en-2-yl)-1,4-dioxa-8,11-diazacyclohexadec-13-ene-2,5,9,12-tetraone], the potency in words result in series [1] is listed as “low pico-molar”.

Consider `COc1ccc(C[C@H]2NC(=O)/C=C/C[C@@H]([C@H](C)/C=C/c3ccncc3)OC(=O)[C@H](CC(C)C)OC(=O)[C@H](C)CNC2=O)cc1Cl` [4 pyridyl, (3S,6R,10R,16S,E)-10-(3-chloro-4-methoxybenzyl)-3-isobutyl-6-methyl-16-((R,E)-4-(pyridin-4-yl)but-3-en-2-yl)-1,4-dioxa-8,11-diazacyclohexadec-13-ene-2,5,9,12-tetraone], for which, in series [1], 0.51 nM corresponded to half-maximal inhibition (IC50).

Consider `COc1ccc(C[C@H]2NC(=O)/C=C/C[C@@H]([C@H](C)[C@H]3O[C@@H]3c3ccccc3)OC(=O)[C@H](CC(C)C)OC(=O)C(C)(C)CNC2=O)cc1Cl` [cryptophycin 52], for which the dose-limiting toxicity result in series [2] (clinical trials) is listed as “dose-limiting peripheral neuropathy”. The clinical outcome in series [2] (platinum-resistant ovarian cancer) is “significant disease stabilization”.

(Values after patent US11530204B2, “Biocatalytic synthesis of cryptophycin anticancer agents” (priority 2019, dated 2022).)
